# Reference: the OligoGym collection
# Several values for one entry are separate records, joined by “and”; a condition that tells them apart may be missing. Equal values may be shown once. HELM strings list units from the 5' end as sugar, base in round brackets, then linkage (d deoxyribose, r ribose, m 2'-O-methyl, p phosphodiester). Strings are as the collection lists them; they lack the last nucleoside at the 3' end of the tested compound. [moe] = 2'-O-(2-methoxyethyl) (MOE); [sp] = phosphorothioate linkage; [m5C] = 5-methylcytosine
# Biological target: SMN2
# Experiment: mouse, dose not given
# Settings: ASO
row,Substance,3 h FOB score
1,RNA1{[moe]([m5C])[sp].[moe](A)p.[moe]([m5C])[sp].[moe](T)[sp].[moe](T)[sp].[moe](T)[sp].[moe]([m5C])[sp].[moe](A)[sp].[moe](T)[sp].[moe](A)p.[moe](A)[sp].[moe](T)[sp].[moe](G)[sp].[moe]([m5C])[sp].[moe](T)[sp].[moe](G)[sp].[moe](G)}$$$$ (last 3' nucleoside missing),0 score 0-7
2,RNA1{[moe](T)[sp].[moe]([m5C])[sp].[moe](A)[sp].[moe]([m5C])[sp].[moe](T)[sp].[moe](T)[sp].[moe](T)[sp].[moe]([m5C])[sp].[moe](A)[sp].[moe](T)[sp].[moe](A)[sp].[moe](A)[sp].[moe](T)p.[moe](G)[sp].[moe]([m5C])p.[moe](T)[sp].[moe](G)}$$$$ (last 3' nucleoside missing),3 score 0-7
3,RNA1{[moe](T)[sp].[moe]([m5C])[sp].[moe](A)[sp].[moe]([m5C])[sp].[moe](T)[sp].[moe](T)[sp].[moe](T)[sp].[moe]([m5C])[sp].[moe](A)[sp].[moe](T)[sp].[moe](A)[sp].[moe](A)[sp].[moe](T)[sp].[moe](G)[sp].[moe]([m5C])p.[moe](T)[sp].[moe](G)[sp].[moe](G)}$$$$ (last 3' nucleoside missing),2.25 score 0-7 (2×) and 2.5 score 0-7 and 2 score 0-7
